Consider 21 compounds from ChEMBL document CHEMBL1123500, “Synthesis and antitumor activity of tropolone derivatives. 3” (1986).

A short description of assay [1]: In vitro inhibition of KB cell growth. Type of assay: functional, Homo sapiens.
For assay [2], the system named is P388. Description: Antitumor activity against P388, was determined by injecting intraperitoneally in mice, at a dose of 1.3 mg/kg. The settings on record: route intraperitoneal. Type of assay: functional, Mus musculus.
Assay [3] deals with P388. Description: Antitumor activity in P388 inoculated mice following 10 mg/kg i.p. administration. The settings on record: route intraperitoneal. Type of assay: functional, Mus musculus.
Assay [4] deals with P388. Description: Antitumor activity against P388, was determined by injecting intraperitoneally in mice, at a dose of 2.5 mg/kg. Type of assay: functional, Mus musculus. The settings on record: route intraperitoneal.
For assay [5], the system named is P388. Description: Antitumor activity in P388 inoculated mice following 5 mg/kg i.p. administration. Type of assay: functional, Mus musculus. The settings on record: route intraperitoneal.
The test system of assay [6] is P388. Description: Antitumor activity against P388, was determined by injecting intraperitoneally in mice, at a dose of 100 mg/kg. Type of assay: functional, Mus musculus. The settings on record: route intraperitoneal.
In assay [7] the test system is P388. Kind of assay: Antitumor activity against P388, was determined by injecting intraperitoneally in mice, at a dose of 200 mg/kg. Type of assay: functional, Mus musculus. The settings on record: route intraperitoneal.
The test system of assay [8] is P388. Kind of assay: Antitumor activity against P388, was determined by injecting intraperitoneally in mice, at a dose of 400 mg/kg. Type of assay: functional, Mus musculus. The settings on record: route intraperitoneal.
Assay [9] relates to P388. Description: Antitumor activity against P388, was determined by injecting intraperitoneally in mice, at a dose of 20 mg/kg. Type of assay: functional, Mus musculus. As to conditions: route intraperitoneal.
Assay [10] relates to P388. Description: Antitumor activity against P388, was determined by injecting intraperitoneally in mice, at a dose of 10 mg/kg. Type of assay: functional, Mus musculus. As to conditions: route intraperitoneal.
The subject of assay [11] is P388. Description: Antitumor activity against P388, was determined by injecting intraperitoneally in mice, at a dose of 5 mg/kg. As to conditions: route intraperitoneal.
In assay [12] the test system is P388. Kind of assay: Antitumor activity against P388, was determined by injecting intraperitoneally in mice, at a dose of 50 mg/kg. Type of assay: functional, Mus musculus. As to conditions: route intraperitoneal.

Take `CC(C)c1ccc(C(c2ccccc2)c2ccc(C(C)C)cc(=O)c2O)c(O)c(=O)c1`: in [1], the Activity is below 0.3 µg/mL. In addition, the T/C (in general, the result in the treated group divided by that in the control group, in per cent) in assay [2] was found to be 132%; in [3] it was 0%; in [4] it was 150%; in assay [5], 188%.
`CC(C)c1ccc(C(c2cccc3ccccc23)C(c2ccc(C(C)C)cc(=O)c2O)c2cccc3ccccc23)c(O)c(=O)c1` (stereo unspecified) showed an Activity in assay [1] below 100 µg/mL. Further, the T/C in assay [6] was determined as 98%; in [7], 96%; in [8], 95%.
In [1], `CC(C)c1ccc(C(c2ccc(C(C)C)cc(=O)c2O)c2cccc3ccccc23)c(O)c(=O)c1` registered an Activity of 2.6 µg/mL. The T/C in assay [3] was found to be 178%; in [9] it was 178%; in assay [5] it was 180%.
The compound `CC(=O)Nc1ccc(C(c2ccc(C(C)C)cc(=O)c2O)c2ccc(C(C)C)cc(=O)c2O)cc1` gave an Activity in assay [1] below 0.3 µg/mL. In addition, the results for the T/C in assay [3], in [9] and in assay [5] were 128%, 0% and 171%, respectively.
`CCOC(=O)COc1ccc(C(c2ccc(C(C)C)cc(=O)c2O)c2ccc(C(C)C)cc(=O)c2O)cc1`: the results for the T/C in assay [10], in assay [9] and in [5] were 0%, 0% and 125%, respectively.
In assay [1], `CC(C)c1ccc(C(c2ccc(OCc3ccccc3)cc2)C(c2ccc(OCc3ccccc3)cc2)c2ccc(C(C)C)cc(=O)c2O)c(O)c(=O)c1` (stereo unspecified) returned an Activity below 100 µg/mL.
In assay [1], `CC(C)c1ccc(C(c2ccc(C(=O)O)cc2)c2ccc(C(C)C)cc(=O)c2O)c(O)c(=O)c1` gave an Activity of 0.5 µg/mL. The T/C in assay [2] amounted to 124%; in assay [3] it was 139%; in assay [4], 154%; in assay [9], 0%.
In turn, `COc1ccc(C(c2ccc(C(C)C)cc(=O)c2O)c2ccc(C(C)C)cc(=O)c2O)cc1` had an Activity in assay [1] below 0.3 µg/mL. Also, the T/C was found to be 170% in assay [3], 170% in [10], 134% in assay [4] and 173% in [5].
As for `CC(C)c1ccc(C(c2ccc(N)cc2)c2ccc(C(C)C)cc(=O)c2O)c(O)c(=O)c1`, the T/C in [3] is listed as 147%; in assay [9], 147%; in assay [5], 138%.
Consider `CC(C)c1ccc(C(c2ccc(-c3ccccc3)cc2)c2ccc(C(C)C)cc(=O)c2O)c(O)c(=O)c1`, for which the Activity in [1] was 2.5 µg/mL. The T/C in assay [3] was 138%; in [9], 127%; in [5], 111%.
The like results for `CC(C)c1ccc(C(c2ccc([N+](C)(C)C)cc2)c2ccc(C(C)C)cc(=O)c2O)c(O)c(=O)c1.[I-]` were, in that order, 2.5 µg/mL, 95%, 91% and 102%.
Compound `CC(C)c1ccc(C(c2ccc(OCC(=O)[O-])cc2)c2ccc(C(C)C)cc(=O)c2O)c(O)c(=O)c1.[Na+]` showed an Activity in [1] of 2.6 µg/mL. Also, the T/C in assay [3] is 0%; in assay [5], 109%.
Consider `CC(C)c1ccc(C(c2ccc(O)cc2)c2ccc(C(C)C)cc(=O)c2O)c(O)c(=O)c1`, for which, in [1], the Activity is below 0.3 µg/mL. Also, the T/C in assay [2] was 139%; in assay [3] it was 0%; in assay [5], 195%.
In the case of `CC(C)c1ccc(C(c2ccco2)c2ccc(C(C)C)cc(=O)c2O)c(O)c(=O)c1`, the T/C in assay [2] was 132%; in assay [3], 0%; in [4], 142%; in [5], 177%.
On to `COc1cc(C(c2ccc(C(C)C)cc(=O)c2O)c2ccc(C(C)C)cc(=O)c2O)cc(OC)c1OC`, for which the Activity in [1] was below 0.3 µg/mL. Moreover, the T/C in assay [3] is 151%; in assay [9], 162%; in assay [5], 142%.
The matching figures for `COC(=O)c1ccc(C(c2ccc(C(C)C)cc(=O)c2O)c2ccc(C(C)C)cc(=O)c2O)cc1`: 0.5 µg/mL, 128%, 0% and 145%.
`CC(C)c1ccc(C(c2cccs2)c2ccc(C(C)C)cc(=O)c2O)c(O)c(=O)c1` returned an Activity in assay [1] of 0.6 µg/mL. For the same compound, the T/C came to 57% in [3], 178% in [5] and 178% in [11].
Consider `CC(C)c1ccc(C(c2ccc3c(c2)OCO3)c2ccc(C(C)C)cc(=O)c2O)c(O)c(=O)c1`, for which, in assay [1], the Activity was 0.5 µg/mL. The figures for the T/C in [3], in assay [9] and in [5] were 193%, 186% and 182%, respectively.
Take `CC(C)c1ccc(C(c2ccc(C(c3ccc(C(C)C)cc(=O)c3O)c3ccc(C(C)C)cc(=O)c3O)cc2)c2ccc(C(C)C)cc(=O)c2O)c(O)c(=O)c1`: in [1], the Activity is 100 µg/mL. Besides, the T/C in [3] turned out to be 105%; in assay [9] it was 100%; in assay [5] it was 107%.
Consider `COc1ccc(C(c2ccc(C(C)C)cc(=O)c2O)C(c2ccc(OC)cc2)c2ccc(C(C)C)cc(=O)c2O)cc1` (stereo unspecified), for which the Activity in assay [1] worked out at 5.2 µg/mL. In addition, the T/C was found to be 138% in assay [6], 140% in assay [7] and 139% in assay [8].
The compound `CC(C)c1ccc(C(c2ccc(OCc3ccccc3)cc2)c2ccc(C(C)C)cc(=O)c2O)c(O)c(=O)c1` yielded an Activity in assay [1] of 4.65 µg/mL. Also, the T/C in assay [6] was 152%; in assay [9], 101%; in assay [12], 148%.
